The assay relates to leukemia cells from eight other ALL patients. Kind of assay: Dasatinib cell viability (MTS assay), primary cells of other ALL subsets. As to conditions: Homo sapiens, 72 h; eight other ALL samples; highest tested concentration 1000 nM; 3 days. It is filed as cell-based.

The structures appear in SMILES notation.

Consider `Cc1nc(Nc2ncc(C(=O)Nc3c(C)cccc3Cl)s2)cc(N2CCN(CCO)CC2)n1` [dasatinib], for which the IC50 was more than 1 µM.

The values above are taken from patent US20130131139A1, “ROR1 AS A GENE TARGET IN ACUTE LYMPHOBLASTIC LEUKEMIA” (Oregon Health & Science University, priority 2011, published 2013).
